Structures are written as SMILES. Several values for one entry are separate records, joined by “and”; a condition that tells them apart may be missing. Identical values can stand only once.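 Tested at 5 concentrations; 48 h exposure; 96-well plates; endpoints linearly interpolated, else capped at highest concentration. The concentration for 50% growth inhibition is given as GI50. TGI denotes the concentration required for complete inhibition of growth.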 Where only a bound is given, the exact number is not on record here.

The first assay relates to ACHN renal. Briefly: inhibition of tumour cell growth, NCI panel, 48 h.
`COP(=O)(OC)C(Nc1ccc(Cc2ccc(NC(c3ccco3)P(=O)(OC)OC)cc2)cc1)c1ccco1` (centres undefined): the TGI was found to be 89.9 µM.

Molecule `C(=C\c1ccccc1)/COc1ccccc1C(N1CCOCC1)n1nc2ccccc2n1` (centres undefined) displayed a TGI of 38.8 µM.

On to `O=C(CC(=O)Nc1ccccc1)NNC(c1cc(N=Nc2ccc(Br)cc2)ccc1O)P(O)O` (centres undefined), for which the TGI is greater than 10 µM.

For `CCOC(=O)C1CCC(=O)N1C(=O)c1ccccc1Cl` (centres undefined), the TGI is greater than 100 µM.

In the case of `CCOC(=O)c1ccc(Nc2nc3ccc(C(F)(F)F)cc3nc2C(=O)OCC)cc1`, the TGI was greater than 100 µM.

Turning to `c1ccc([P+](CCCCCCCC[P+](c2ccccc2)(c2ccccc2)c2ccccc2)(c2ccccc2)c2ccccc2)cc1`, the TGI was greater than 100 µM.

`O=C1C(C(O)(C(F)(F)F)C(F)(F)F)CCC1C(O)(C(F)(F)F)C(F)(F)F` (centres undefined) gave a TGI greater than 61.5 µM.

As to `CCOC(=O)C1=CC(C)(C(=O)OCC)Nc2c(nc(N)[nH]c2=O)N1` (centres undefined), the TGI was greater than 10 µM.

The next assay has as its system KM12 colon. In words: inhibition of tumour cell growth, NCI panel, 48 h.
On to `COc1cc(C(O)c2ccc3c(c2)OCO3)cc(OC)c1OC` (centres undefined), for which the TGI was greater than 100 µM.

`Cc1cc(C)nc(NS(=O)(=O)c2ccc(NC(=O)c3cccc4c(NNc5ccc(S(=O)(=O)N=C(N)N)cc5)c5ccccc5nc34)cc2)n1` displayed a TGI greater than 50 µM.

Regarding `O=C(CC(C(=O)c1ccco1)c1ccco1)c1ccco1` (centres undefined), the TGI was greater than 100 µM.

Regarding `CCOC(=O)c1sc2ncnc(N)c2c1C`, the TGI was greater than 100 µM.

Take `C=CCN1C(=O)/C(=C/c2ccc(C)cc2)N=C1SC1OC(COC(C)=O)C(OC(C)=O)C(OC(C)=O)C1OC(C)=O` (centres undefined): the TGI is > 100 µM and 17.9 µM.

In the case of `O=C1CS(=O)(=O)C(c2cccc(Oc3ccccc3)c2)N1c1cc(Cl)ccc1Cl` (centres undefined), the TGI was found to be 39.4 µM.

`COc1ccc(OC)c2sc(N3C(=O)/C(=C/c4cccc([N+](=O)[O-])c4)N=C3c3ccccc3)nc12` registered a TGI greater than 100 µM.

In turn, `Cc1cccc(/C(Br)=C2/OC(=O)c3ccccc32)c1` yielded a TGI greater than 100 µM.

With `N#Cc1c(-c2ccccc2)c2c([nH]c1=O)-c1cc([N+](=O)[O-])ccc1CCC2`, the TGI is greater than 100 µM.

The molecule `O=[N+]([O-])c1cc(Cl)ccc1Sc1ccccc1` displayed a TGI greater than 100 µM.

In the case of `Nc1ccc(-c2nn3c(COc4ccc(Cl)cc4)nnc3s2)cc1`, the GI50 was 99.5 µM and the TGI was greater than 100 µM.

As to `COP(=O)(OC)C(Nc1ccc(Cc2ccc(NC(c3ccco3)P(=O)(OC)OC)cc2)cc1)c1ccco1` (centres undefined), the TGI is greater than 100 µM.

Turning to `C(=C\c1ccccc1)/COc1ccccc1C(N1CCOCC1)n1nc2ccccc2n1` (centres undefined), the TGI turned out to be 19.8 µM.

Consider `O=C(CC(=O)Nc1ccccc1)NNC(c1cc(N=Nc2ccc(Br)cc2)ccc1O)P(O)O` (centres undefined), for which the TGI was greater than 10 µM.

As for `CCOC(=O)C1CCC(=O)N1C(=O)c1ccccc1Cl` (centres undefined), the TGI is greater than 100 µM.

As to `CCOC(=O)c1ccc(Nc2nc3ccc(C(F)(F)F)cc3nc2C(=O)OCC)cc1`, the TGI is greater than 100 µM.

In the case of `c1ccc([P+](CCCCCCCC[P+](c2ccccc2)(c2ccccc2)c2ccccc2)(c2ccccc2)c2ccccc2)cc1`, the TGI came out at 49.5 µM.

Turning to `O=C1C(C(O)(C(F)(F)F)C(F)(F)F)CCC1C(O)(C(F)(F)F)C(F)(F)F` (centres undefined), the TGI was 37.3 µM.

For the molecule `CCOC(=O)C1=CC(C)(C(=O)OCC)Nc2c(nc(N)[nH]c2=O)N1` (centres undefined), the TGI is greater than 10 µM.

The subject of another assay is HOP-92 NSCLC. In words: inhibition of tumour cell growth, NCI panel, 48 h.
Molecule `COc1cc(C(O)c2ccc3c(c2)OCO3)cc(OC)c1OC` (centres undefined) had a TGI greater than 100 µM.

`Cc1cc(C)nc(NS(=O)(=O)c2ccc(NC(=O)c3cccc4c(NNc5ccc(S(=O)(=O)N=C(N)N)cc5)c5ccccc5nc34)cc2)n1`: the TGI was greater than 50 µM.

Molecule `O=C(CC(C(=O)c1ccco1)c1ccco1)c1ccco1` (centres undefined) came in with a TGI greater than 100 µM.

`CCOC(=O)c1sc2ncnc(N)c2c1C` returned a TGI of 92.2 µM.

As to `C=CCN1C(=O)/C(=C/c2ccc(C)cc2)N=C1SC1OC(COC(C)=O)C(OC(C)=O)C(OC(C)=O)C1OC(C)=O` (centres undefined), the GI50 is > 100 µM and 11.6 µM; the TGI was > 100 µM and 53.4 µM.

As for `O=C1CS(=O)(=O)C(c2cccc(Oc3ccccc3)c2)N1c1cc(Cl)ccc1Cl` (centres undefined), the TGI was found to be 38.8 µM.

With `COc1ccc(OC)c2sc(N3C(=O)/C(=C/c4cccc([N+](=O)[O-])c4)N=C3c3ccccc3)nc12`, the TGI was greater than 100 µM.

Molecule `Cc1cccc(/C(Br)=C2/OC(=O)c3ccccc32)c1` returned a TGI greater than 100 µM.

As for `N#Cc1c(-c2ccccc2)c2c([nH]c1=O)-c1cc([N+](=O)[O-])ccc1CCC2`, the TGI was 58.9 µM.

The molecule `O=[N+]([O-])c1cc(Cl)ccc1Sc1ccccc1` registered a TGI greater than 100 µM.

Turning to `Nc1ccc(-c2nn3c(COc4ccc(Cl)cc4)nnc3s2)cc1`, the GI50 was 98 µM and the TGI is greater than 100 µM.

`COP(=O)(OC)C(Nc1ccc(Cc2ccc(NC(c3ccco3)P(=O)(OC)OC)cc2)cc1)c1ccco1` (centres undefined) came in with a TGI of 35.1 µM.

Molecule `C(=C\c1ccccc1)/COc1ccccc1C(N1CCOCC1)n1nc2ccccc2n1` (centres undefined) registered a TGI of 21.9 µM.

Turning to `O=C(CC(=O)Nc1ccccc1)NNC(c1cc(N=Nc2ccc(Br)cc2)ccc1O)P(O)O` (centres undefined), the TGI was greater than 10 µM.

`CCOC(=O)C1CCC(=O)N1C(=O)c1ccccc1Cl` (centres undefined) had a TGI greater than 100 µM.

As for `CCOC(=O)c1ccc(Nc2nc3ccc(C(F)(F)F)cc3nc2C(=O)OCC)cc1`, the TGI is greater than 100 µM.

`c1ccc([P+](CCCCCCCC[P+](c2ccccc2)(c2ccccc2)c2ccccc2)(c2ccccc2)c2ccccc2)cc1` yielded a TGI of 43.9 µM.

With `O=C1C(C(O)(C(F)(F)F)C(F)(F)F)CCC1C(O)(C(F)(F)F)C(F)(F)F` (centres undefined), the TGI stood at 0.245 µM.

`CCOC(=O)C1=CC(C)(C(=O)OCC)Nc2c(nc(N)[nH]c2=O)N1` (centres undefined): the TGI is greater than 10 µM.
